Assay results as given in patent US6420572B1, “Synthetic methods for preparation of protected proanthocyanidin(s)” (Mars, Incorporated, priority 1997, dated 2002).
Entries after “also recorded” stand apart in the source; their conditions may differ. Read-outs that look alike come from different tables or passages of the source.

System: human breast cancer cell lines (MDA MB 231, MDA MB 435, MCF-7)
Experiment: Cytotoxic activity: cell proliferation (crystal violet staining) of human breast cancer cell lines
Method: All human tumor cell lines were obtained from the American Type Culture Collection. Cells were grown as monolayers in IMEM containing 10% fetal bovine serum without antibiotics. The cells were maintained in a humidified, 5% CO2 atmosphere at 37° C.
After trypsinization, the cells were counted and adjusted to a concentration of 1,000-2,000 cells per 100 mL. Cell proliferation was determined by plating the cells (1,000-2,000 cells/well) in a 96 well microtiter plate. After addition of 100 μL cells per well, the cells were allowed to attach for 24 hours. […] The polyphenols were dissolved in media at a 2 fold concentration and 100 μL of each solution was added in triplicate wells. On consecutive days, the plates were stained with 50 μL crystal violet (2.5 g crystal violet dissolved in 125 mL methanol, 375 mL water), for 15 min. The stain was removed and the plate was gently immersed into cold water to remove excess stain. The washings were repeated two more times, and the plates allowed to dry. The remaining stain was solubilized by adding 100 μL of 0.1 M sodium citrate/50% ethanol to each well. After solubilization, the number of cells were quantitated on an ELISA plate reader at 540 nm (reference filter at 410 nm).
Error bars represent +/− standard deviation of three replicate measurements.

[1] = breast cancer cell lines investigated, four days, various μg/mL concentrations, FIG. 1(a)-(d)

SMILES: Oc1cc(O)c2c(c1)O[C@H](c1ccc(O)c(O)c1)[C@H](O)C2 [monomer (epicatechin), epicatechin, reference compound]
- cytotoxicity (cancer cell line growth at the end of four days as percent growth of the control) [1]: no cytotoxicity

SMILES: Oc1cc(O)c2c(c1)O[C@H](c1ccc(O)c(O)c1)[C@H](O)[C@H]2c1c(O)cc(O)c2c1O[C@H](c1ccc(O)c(O)c1)[C@H](O)C2 [synthetic epicatechin dimer, EC-(4β→8)-EC]
- cytotoxicity (cancer cell line growth at the end of four days as percent growth of the control): no cytotoxicity

SMILES: O=C(OC1Cc2c(O)cc(O)c(C3c4c(O)cc(O)c(C5c6c(O)cc(O)cc6OC(c6ccc(O)c(O)c6)C5OC(=O)c5cc(O)c(O)c(O)c5)c4OC(c4ccc(O)c(O)c4)C3OC(=O)c3cc(O)c(O)c(O)c3)c2OC1c1ccc(O)c(O)c1)c1cc(O)c(O)c(O)c1 (stereo not drawn) [synthetic epicatechin trimer trisgallate, [EC-3-O-galloyl-(4β→8)]2-EC-3-O-gallate]
- cytotoxicity (cancer cell line growth at the end of four days as percent growth of the control) [1]: cytotoxic effect equivalent to the pentamer and/or epigallocatechin gallate
- antineoplastic activity against several human breast cancer cell lines (comparison in words) (in vitro assessment of Example 25): activity equivalent to the pentamer; also recorded: greater antineoplastic activity when compared to the underivatized dimer and trimer
